Values of other authors in US20240041861A1, “COMPOSITIONS AND METHODS FOR TREATMENT AND PROPHYLAXIS OF VIRAL INFECTIONS” (priority 2020, published 2024).
pEC50, pIC50: −log10 of the molar value. ≈ marks a conversion by molar mass, not a printed value. Where two headings read alike, the source gives them in different places. Values belong to the compound of their own block, whether it stands above or below them.

Columns and labels:
[1] = test system: NS3/4A HCV protease GT1b
[2] = test system: replicon GT1b
[3] = molecular target: PDE5 (Homo sapiens, UniProt O76074)
[4] = in vivo
[5] = not given; remark: listed apart in the source
[6] = not given; remark: listed apart in the source
[7] = in vivo; remark: listed apart in the source
[8] = human, in vivo

Structure (SMILES): CC(C)(C)OC(=O)N[C@H]1CCCCC/C=C\[C@@H]2C[C@@]2(C(=O)NS(=O)(=O)C2CC2)NC(=O)[C@@H]2C[C@@H](OC(=O)N3Cc4cccc(F)c4C3)CN2C1=O [Danoprevir]
pIC50 [1]: 9.40 to 9.70
pEC50 [2]: 8.80

Structure (SMILES): CCCc1nn(C)c2c(=O)[nH]c(-c3cc(S(=O)(=O)N4CCNCC4)ccc3OCC)nc12 [N-desmethyl metabolite]
in vitro potency for PDE5 relative to the parent drug [3]: approximately 50%
terminal half lives [4]: about 4 hours
bound to plasma proteins: approximately 96%

Structure (SMILES): CC(C)Nc1cccnc1N1CCN(C(=O)c2cc3cc(NS(C)(=O)=O)ccc3[nH]2)CC1 [delavirdine free base]
solubility ([5]; pH 1): 2940 µg/mL (≈ 6440 µM)
solubility ([5]; pH 2): 295 µg/mL (≈ 646 µM)
solubility ([5]; pH 7.4): 0.81 µg/mL (≈ 1.77 µM)

Structure (SMILES): CCN(CCO)CCCC(C)Nc1ccnc2cc(Cl)ccc12 (centres unmarked) [hydroxychloroquine]
half-life ([6]; in vivo): about 40 days
mean fraction of the dose absorbed ([6]; in vivo): 0.74
dose excreted as the parent drug in urine ([6]; in vivo, po): approximately 10%
half-life ([6]; in vivo, po, 200 mg): 22.4 days
mean peak blood concentration ([6]; single 200 mg oral dose of PLAQUENIL, healthy males, blood): 129.6 ng/mL
half-life ([6]; single 200 mg oral dose, healthy males, plasma): 123.5 days
fraction of the dose absorbed [7]: 30-100%
renal clearance of unchanged drug [7]: 16-30%
absorption half-life ([7]; po): 0.12 to 0.17 days
terminal half-life ([7]; po): 40 to 50 days
time of peak plasma levels ([7]; po): 3 to 4 h

Other lines, results leading:

plasma levels relative to those obtained after the ritonavir dose of 600 mg twice daily [8]: less than 7%
Structure (SMILES): CC(C)c1nc(CN(C)C(=O)N[C@H](C(=O)N[C@@H](Cc2ccccc2)C[C@H](O)[C@H](Cc2ccccc2)NC(=O)OCc2cncs2)C(C)C)cs1 [ritonavir]

mean steady state volume of distribution (Vss) [4]: 105 L
terminal half lives [4]: about 4 hours
bound to plasma proteins: approximately 96%
Structure (SMILES): CCCc1nn(C)c2c(=O)[nH]c(-c3cc(S(=O)(=O)N4CCN(C)CC4)ccc3OCC)nc12 [sildenafil]
